The text below walks through data of PMC12435366, “Maleic anhydride derived diphosphines: adaptable chelators for receptor-targeted ^99mTc, ^64Cu and ^188Re radiotracers” (Chemical Science, 2025).

For the assay, the system named is parental DU145 cells that do not express PSMA. The assay is described as follows: In vitro uptake of 99mTc tracers in parental DU145 cells. It counts as cell-based. As to conditions: PSMA-negative DU145 cells, 1 h. The protocol:
To compare the relative uptake and specificity of the new radiotracers for PSMA, [^99mTcO2(DP^Ph-PSMAt)2]^+, [^99mTcO2(DP^An-PSMAt)2]^+ and [^99mTcO2(DP^MEP-PSMAt)2]^+ (50 kBq) were purified from unreacted ^99mTc precursors and excess DP-PSMAt peptide, and each incubated with PSMA-expressing DU145-PSMA+ prostate cancer cells[33] or LNCaP prostate cancer cells (5 × 10^5 cells). After 1 h incubation, uptake of each radiotracer was quantified. […]
4.9 99mTc uptake in DU145, DU145-PSMA+ and LNCaP cells
The following experiment was performed in biological triplicate.
A panel of cell lines were selected that either expressed GCP(II)/PSMA (DU145-PSMA+ (genetically modified to express PSMA),12 and LNCaP (CRL‐1740)), or had low GCP(II)/PSMA expression (DU145 (HTB-81)). All cell lines were cultured in RPMI 1640 medium (R0883, Sigma) containing 10% foetal bovine serum, 2 mM L-glutamine, and 100 U mL−1 penicillin and 100 µg mL−1 streptomycin. Cells were maintained at 37 °C and 5% CO 2. Cells were seeded in 6-well plates at a density of 5 × 10^5 cells per well […]
in 2 mL complete media to achieve 70–80% confluency the following day. […] The cells were lysed with ice cold radioimmunoprecipitation assay buffer (RIPA buffer, 500 μL; 150 mM sodium chloride, 0.1% w/w sodium dodecyl sulfate (SDS), 0.5% w/w sodium deoxycholate (NaDOC), 1% w/w Triton-X) and samples were collected for radioactivity counting. […]

As to `COCCOc1ccc(P(/C(C(=O)O)=C(/C(=O)NCCOCCOCCOCCOCCC(=O)NCCCC[C@H](NC(=O)N[C@@H](CCC(=O)O)C(=O)O)C(=O)O)P(c2ccc(OCCOC)cc2)c2ccc(OCCOC)cc2)c2ccc(OCCOC)cc2)cc1` [[^99mTcO2(DP^MEP-PSMAt)2]^+, metal not drawn], the “uptake in parental DU145 cells” value was “negligible uptake”.
In the case of `COc1ccc(P(/C(C(=O)O)=C(/C(=O)NCCOCCOCCOCCOCCC(=O)NCCCC[C@H](NC(=O)N[C@@H](CCC(=O)O)C(=O)O)C(=O)O)P(c2ccc(OC)cc2)c2ccc(OC)cc2)c2ccc(OC)cc2)cc1` [[^99mTcO2(DP^An-PSMAt)2]^+, metal not drawn] it was “negligible uptake”.
